Results as given in paper PMC9667936, “Functional mapping of the 14-3-3 hub protein as a guide to design 14-3-3 molecular glues” (Chemical Science, 2022).
Where a SMILES comes first, the peptide text is derived from it. [ ]: non-standard residue; d: D form. The star is where a group is joined. ξ: configuration not given here. FITC = O=C1OC2(c3ccc(O)cc3Oc3cc(O)ccc32)c2ccc(NC(=S)*)cc21; Phe(4-NO2) = N[C@@H](Cc1ccc([N+](=O)[O-])cc1)C(=O)O; ξAla(4-thiazolyl) = NC(Cc1cscn1)C(=O)O; pS = N[C@@H](COP(=O)(O)O)C(=O)O; Nva = CCC[C@H](N)C(=O)O; AEA = NCCOCC(=O)O

Target: T1, 14-3-3γ (Homo sapiens, UniProt P61981)
T1 construct: made in house; host or cells: E. coli NiCo21 (DE3)
T1 sequence (P61981 1-247): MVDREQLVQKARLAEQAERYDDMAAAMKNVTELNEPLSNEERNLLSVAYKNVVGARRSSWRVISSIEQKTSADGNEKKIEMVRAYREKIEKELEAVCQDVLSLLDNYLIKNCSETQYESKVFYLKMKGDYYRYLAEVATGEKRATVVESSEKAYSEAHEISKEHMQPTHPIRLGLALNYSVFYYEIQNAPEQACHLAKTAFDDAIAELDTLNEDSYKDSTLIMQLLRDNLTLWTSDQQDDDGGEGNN
Assay: Fluorescence anisotropy (FA) binary binding study: 14-3-3 titrated to fluorescein-labelled peptide
Details: for Fold change to previous / ΔG / ΔΔG (to previous): Table S3
Method: 14-3-3γ protein expression (FP/ITC experiments)
(§1) A pPROEX HTb expression vector encoding the human 14-3-3 protein gamma (14-3-3γ) with an N-terminal his6-tag was transformed by heat shock into NiCo21 (DE3) competent cells. Single colonies were cultured in 50 mL LB medium (100 µg/mL ampicillin). After overnight incubation at 37 °C, cultures were transferred to 2 L TB media (100 µg/mL ampicillin, 1 mM MgCl2) and incubated at 37 °C until an OD600 nm of 0.8-1.2 was reached. Protein expression was then induced with 0.4 mM isopropyl-β-d-thiogalactoside (IPTG), and cultures were incubated overnight at 18 °C. Cells were harvested by centrifugation (8600 rpm, 20 minutes, 4 °C) and resuspended in lysis buffer (50 mM Hepes, pH 8.0, 300 mM NaCl, 12.5 mM imidazole, 5 mM MgCl2, 2 mM βME) containing cOmplete™ EDTA-free Protease Inhibitor Cocktail tablets (1 tablet/100 ml lysate) and benzonase (1 µl/100 ml). After lysis using a C3 Emulsiflex-C3 homogenizer (Avestin), the cell lysate was cleared by centrifugation (20000 rpm, 30 minutes, 4 °C) and purified using Ni2+-affinity chromatography (Ni-NTA superflow cartridges, Qiagen).
Typically two 5 mL columns (flow 5 mL/min) were used for a 2 L culture in which the lysate was loaded on the column washed with 10 CV wash buffer (50 mM Hepes, pH 8.0, 300 mM NaCl, 25 mM imidazole, 2 mM βME) and eluted in several fractions (2-4 CV) of elution buffer (50 mM Hepes, pH 8.0, 300 mM NaCl, 250 mM imidazole, 2 mM βME). Fractions containing the 14-3-3 protein were combined and dialyzed into 25 mM HEPES pH 8.0, 100 mM NaCl, 10 mM MgCl2, 500 µM TCEP. Finally, the protein was concentrated to ∼60 mg/mL, analyzed Q-Tof LC/MS, and aliquots were flash-frozen for storage at […]
as §1, with “sigma truncated after T231 (14-3-3σΔc) and” for “gamma (14-3-3γ)”, “tablet/ 100” for “tablet/100”, “µl/ 100” for “µl/100”, “ml).” for “ml). After lysis using a C3 Emulsiflex-C3 homogenizer (Avestin), the cell lysate was cleared by centrifugation (20000 rpm, 30 minutes, 4 °C) and purified using Ni2+-affinity chromatography (Ni-NTA superflow cartridges, Qiagen).”
After lysis using a C3 Emulsiflex-C3 homogenizer (Avestin), the cell lysate was cleared by centrifugation (20000 rpm, 30 minutes, 4 °C) and purified using Ni2+-affinity chromatography (Ni-NTA superflow cartridges, Qiagen). Typically two 5 mL columns were used for a 2 L culture in which the lysate was loaded on the column washed with 10 CV wash buffer (50 mM Hepes, pH 8.0, 300 mM NaCl, 25 mM imidazole, 2 mM βME) and eluted with several fractions (2-4 CV) of elution buffer (50 mM Hepes, pH 8.0, 300 mM NaCl, 250 mM imidazole, 2 mM βME). Fractions containing the 14-3-3 protein were combined and dialyzed into 25 mM HEPES pH 8.0, 200 mM NaCl, 10 mM MgCl2, 2 mM βME. In addition, 1 mg TEV was added for each 100 mg purified protein to remove the purification tag. The cleaved sample was then again loaded on a 10 mL Ni-NTA column to separate the cleaved product from the expression tag and residual uncleaved protein. The flowthrough was loaded on a Superdex 75 pg 16/60 size exclusion column (GE Life Sciences) using 25 mM HEPES, 100 mM NaCl, 10 mM MgCl2, 500 μM TCEP (adjusted to pH=8.0) as running buffer. Fractions containing the 14-3-3 protein were pooled and concentrated to ∼60 mg/mL, analyzed Q-Tof LC/MS, and aliquots were flash-frozen for storage at −80 […]
The peptides 1 and 2a-d were synthesized on 50 µmol scale on a Rink amide MBHA resin […]

[1] = FA KD of peptide divided by KD of previous (one amino acid longer) peptide, mean of n = 3
[2] = KD / KD of previous peptide, replicate 1
[3] = KD / KD of previous peptide, replicate 2
[4] = KD / KD of previous peptide, replicate 3
[5] = calculated from FA KD, mean of n = 3
[6] = ΔG minus ΔG of previous peptide, FA, replicate 1
[7] = ΔG minus ΔG of previous peptide, FA, replicate 2
[8] = ΔG minus ΔG of previous peptide, FA, replicate 3
[9] = ΔG of peptide minus ΔG of previous (one amino acid longer) peptide, FA, mean of n = 3

`CCC[C@H](NC(=O)[C@@H](CCCCN)NC(=O)COCCNC(=S)Nc1ccc2c(c1)C(=O)OC21c2ccc(O)cc2Oc2cc(O)ccc21)C(=O)N[C@@H](Cc1ccc([N+](=O)[O-])cc1)C(=O)NC(Cc1cscn1)C(=O)N[C@@H](COP(=O)(O)O)C(=O)N[C@@H](Cc1ccc([N+](=O)[O-])cc1)C(N)=O` (stereo partly shown) [2h] ({FITC-AEA}-[dK][Nva][Phe(4-NO2)][ξAla(4-thiazolyl)][pS][Phe(4-NO2)]-NH2) was tested, and the “individual ΔΔG of removed residue” value (FA, ΔG relative to the previously truncated peptide) was 0.6 kcal/mol, the “Fold change to previous” value [1] was 2,92 and the “Fold change to previous” value [2] was 2,91. For the same compound, the “Fold change to previous” value [3] was 2,67, the “Fold change to previous” value [4] was 3,19 and the ΔG [5] was -7,04 kcal/mol. For the same compound, the ΔG (from FA KD, replicate 1) was -7,08 kcal/mol, the ΔG (from FA KD, replicate 2) was -7,00 kcal/mol and the ΔG (from FA KD, replicate 3) was -7,04 kcal/mol. For the same compound, the “ΔΔG (to previous)” value [6] was 0,63 kcal/mol, the “ΔΔG (to previous)” value [7] was 0,58 kcal/mol and the “ΔΔG (to previous)” value [8] was 0,69 kcal/mol. For the same compound, the “ΔΔG (to previous)” value [9] was 0,63 kcal/mol.
In the case of `CCC[C@H](NC(=O)[C@@H](CCCCN)NC(=O)COCCNC(=S)Nc1ccc2c(c1)C(=O)OC21c2ccc(O)cc2Oc2cc(O)ccc21)C(=O)N[C@@H](Cc1ccc([N+](=O)[O-])cc1)C(=O)NC(Cc1cscn1)C(=O)N[C@@H](COP(=O)(O)O)C(N)=O` (stereo partly shown) [2i] ({FITC-AEA}-[dK][Nva][Phe(4-NO2)][ξAla(4-thiazolyl)][pS]-NH2), the “fold change in binding affinity on truncation” value (FA KD relative to the previous (one amino acid longer) peptide) is reported as “four-fold”, the “cumulative ΔΔG of truncating the entire N- or C-terminus” value (FA, relative to peptide 1 (2d: entire N-terminus; 2i: entire C-terminus)) is reported as 4.3 kcal/mol and the “ΔΔG C-term (cumulative, whole C-terminus removed)” value (Table S3, C-term = 2i relative to 1, FA, mean of n = 3) is reported as 4,31 kcal/mol. The “ΔΔG C-term (cumulative)” value (Table S3, C-term = 2i relative to 1, FA, replicate 1) was 4,39 kcal/mol, the “ΔΔG C-term (cumulative)” value (Table S3, C-term = 2i relative to 1, FA, replicate 2) was 4,30 kcal/mol and the “ΔΔG C-term (cumulative)” value (Table S3, C-term = 2i relative to 1, FA, replicate 3) was 4,23 kcal/mol. For the same compound, the “Fold change to previous” value [1] was 4,04, the “Fold change to previous” value [2] was 4,23 and the “Fold change to previous” value [3] was 3,56. For the same compound, the “Fold change to previous” value [4] was 4,33, the ΔG [5] was -6,22 kcal/mol and the ΔG (from FA KD, replicate 1) was -6,22 kcal/mol. The ΔG (from FA KD, replicate 2) was -6,25 kcal/mol, the ΔG (from FA KD, replicate 3) was -6,18 kcal/mol and the “ΔΔG (to previous)” value [6] was 0,85 kcal/mol. For the same compound, the “ΔΔG (to previous)” value [7] was 0,75 kcal/mol, the “ΔΔG (to previous)” value [8] was 0,87 kcal/mol and the “ΔΔG (to previous)” value [9] was 0,82 kcal/mol.
